Reference: publication PMC5538625, “Perception of root‐active CLE peptides requires CORYNE function in the phloem vasculature” (EMBO Reports, 2017)
Where no end group is shown, it is not given here.

Assays:
[1] = test system: crn seedlings expressing CRN-CITRINE under control of the BAM3 promoter; assay: Root growth, BAM3::CRN-CITRINE in crn (protophloem-specific CRN); format: in vivo, Arabidopsis thaliana; conditions: 50 nM peptide, 7-day-old seedlings
Source text: Figure 3 Protophloem‐specific CRN action in the root meristem • A Expression pattern of BAM3, CLV2, and CRN‐CITRINE fusion proteins (green fluorescence) under control of their native promoters (blue fluorescence: calcofluor white cell wall staining) (confocal microscopy). Asterisks mark developing protophloem sieve element strands. • B, C Expression pattern of CRN‐CITRINE fusion protein under control of the BAM3 promoter in Col‐0 (B) or crn (C) background. Arrowhead in (C) highlights plasma membrane‐localized CRN. • D Representative 7‐day‐old crn seedlings expressing CRN‐CITRINE fusion protein under control of the BAM3 promoter grown on mock or CLE45. • E Primary root length of 7‐day‐old seedlings of indicated genotypes, grown on mock or 50 nM of selected CLE peptides. Differences as compared to ^a: Col‐0 or ^b: crn are not statistically significant unless indicated (Student's t‐test); *P < 0.05; **P < 0.01; ***P < 0.001; mean ± s.e.m. • F Expression of nuclear localized, fluorescent VENUS protein under control of the CVP2 promoter (which specifically marks developing protophloem sieve elements), 24 h after transfer from standard media to 50 nM of selected CLE peptides. Arrowheads indicate the cells closest to the tip in which CVP2 expression was still detectable. […]

[2] = test system: Arabidopsis Col-0 seedlings (primary root); assay: Root growth assay, wild type (Col-0); format: in vivo, Arabidopsis thaliana; conditions: 50 nM peptide, 9-day-old seedlings, primary root length, n ≥ 12
Protocol: Plant tissue culture, plant transformation, and common molecular biology procedures such as genomic DNA isolation, genotyping, sequencing, and peptide or inhibitor treatments were performed according to standard procedures as previously described 9, 19, 44, 65.
All mutant and transgenic lines were in the Arabidopsis Columbia‐0 (Col‐0) background. The following previously described mutant alleles were used throughout: brx‐2, bam3‐2, brx‐2 bam3, clv2‐1, serk1‐1 and serk1‐3, serk2‐1, serk3‐1, serk4‐1, serk5‐1 9, 47, 59, 66, 67, 68. The crn loss‐of‐function mutant allele (crn‐10) carries a single nucleotide insertion in front of the 7th codon, which leads to a frameshift and three subsequent premature stop codons after amino acid 10 52.

[3] = target: T1, PXY extracellular domain (30–647) (Arabidopsis thaliana, UniProt Q9FII5); assay: ITC of purified PXY extracellular domain vs. CLE41/44; conditions: binding affinity (range), isolated PXY ectodomain; range joins own value (Fig EV1B) and ref 25
T1 construct: PXY/TDR (30–647); azurocidin signal peptide (N); made in house; host or cells: Spodoptera frugiperda Sf9 insect cells (baculovirus, secreted)
T1 sequence (Q9FII5 30-647): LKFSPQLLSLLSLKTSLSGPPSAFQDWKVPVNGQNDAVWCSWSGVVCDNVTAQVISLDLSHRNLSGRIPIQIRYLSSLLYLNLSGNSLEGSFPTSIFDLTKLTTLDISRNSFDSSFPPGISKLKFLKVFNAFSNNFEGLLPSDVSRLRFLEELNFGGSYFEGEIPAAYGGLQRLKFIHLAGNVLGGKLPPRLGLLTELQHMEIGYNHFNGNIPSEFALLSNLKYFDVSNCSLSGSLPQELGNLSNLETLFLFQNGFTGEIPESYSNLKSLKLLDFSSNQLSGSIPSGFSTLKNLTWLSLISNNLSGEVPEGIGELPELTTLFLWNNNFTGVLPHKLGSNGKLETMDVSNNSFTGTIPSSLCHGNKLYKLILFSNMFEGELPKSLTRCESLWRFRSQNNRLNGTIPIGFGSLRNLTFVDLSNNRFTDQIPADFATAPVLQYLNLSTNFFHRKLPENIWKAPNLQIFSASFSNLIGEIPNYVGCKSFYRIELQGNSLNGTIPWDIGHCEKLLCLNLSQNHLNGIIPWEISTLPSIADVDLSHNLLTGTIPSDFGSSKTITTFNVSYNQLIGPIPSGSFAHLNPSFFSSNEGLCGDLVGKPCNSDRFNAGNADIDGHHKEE

| Sequence | sensitivity after protophloem-specific CRN expression in crn [1] | impact on root growth [2] | Kd [3] |
| --- | --- | --- | --- |
| RKVPRGPDPIHN [CLE26, CLE26: …] | restored sensitivity | significant, reproducible impact on root growth |  |
| HEVPSGPNPISN [CLE41/44] |  |  | 10 to 30 nM |
